According to BindingDB's records for doi:10.7270/Q23F4N3R (Burnham Center For Chemical Genomics, 2011):
Counter-ions that a name gives are not always drawn.

Test: hexokinase 1 inhibition, dose response, selectivity assay for HKDC1 inhibitor project, biochemical (AID 504763)
Settings: not given

Row | Structure (SMILES) | IC50 [µM]
1 | N#Cc1ccc(CSc2nnc(NC(=O)c3ccc4ncsc4c3)s2)cc1 [MLS000334839] | > 80
2 | Cc1cccc(N2C(=O)NC(=O)C(=Cc3ccc4c(c3)CCCN4Cc3ccccc3)C2=O)c1 [5-[1-(1-Benzyl-1,2,3,4-tetrahydro-quinolin-6-yl)-meth-(E)-ylidene]-1-m-tolyl-pyrimidine-2,4,6-trione] | > 80
3 | CCOc1ccc2c(c1)C(NC(C)=O)C(=O)N2CCN1CCOCC1 (configuration not stated) [N-[5-ethoxy-1-(2-morpholin-4-ylethyl)-2-oxo-3H-indol-3-yl]acetamide;hydrochloride] | > 80
4 | O=C1C=C(NCc2ccccc2)c2ccccc2C1=O [SMR000282064] | 1.9
5 | Cn1c2ccccc2c(=O)c2c(=O)n(-c3ccc(F)cc3)c(-c3cccs3)nc21 [SMR000439524] | 2.5
6 | CCN(CC)CCCNC(=O)c1c(O)c2ccccc2n(Cc2ccccc2)c1=O [N-[3-(diethylamino)propyl]-2-oxidanyl-4-oxidanylidene-1-(phenylmethyl)quinoline-3-carboxamide;hydrochloride] | > 80
7 | COC(=O)[C@@H]1[C@@H](C(=O)OC)C2(c3ccccc3-c3ccccc32)N(c2ccc(Cl)cc2)N1C#N [(3'S,4'R)-1'-(4-chlorophenyl)-2'-cyanospiro[fluorene-9,5'-pyrazolidine]-3',4'-dicarboxylic acid dimethyl ester] | > 80
8 | COc1ccc(S(=O)(=O)Nc2ccc(O)c3ccccc23)cc1 [4-methoxy-N-(4-oxidanylnaphthalen-1-yl)benzenesulfonamide] | > 80
9 | O=C1NC(=S)N(c2ccc(F)cc2)C(=O)C1=Cc1ccoc1 [SMR000270574] | > 80
10 | Cc1ccc(Nc2c3[nH]cccc-3c(=O)n2-c2ccccc2C)cc1C [SMR000028201] | > 80
11 | COC1=CC(/C=C(\C#N)c2nc3ccc(C)cc3[nH]2)C=C([N+](=O)[O-])C1=O (configuration not stated) [(2Z,3E)-3-(3-methoxy-5-nitro-4-oxocyclohexa-2,5-dien-1-ylidene)-2-(5-methyl-1,3-dihydrobenzimidazol-2-ylidene)propanenitrile] | 18
12 | Cc1ccc(C)c(-n2c3nc(=O)[nH]c(=O)c-3cc3cc([N+](=O)[O-])ccc32)c1 [10-(2,5-Dimethyl-phenyl)-7-nitro-10H-pyrimido[4,5-b]quinoline-2,4-dione] | > 80
13 | CCCCC[C@H](O)/C=C/[C@@H]1[C@@H](C/C=C\CCCC(=O)OC)[C@@H](O)C[C@H]1O [MLS000028823] | > 80
14 | CCOC(=O)c1ccc(NC(=O)CSc2ccc(-c3ccccn3)nn2)cc1 [ethyl 4-[2-(6-pyridin-2-ylpyridazin-3-yl)sulfanylethanoylamino]benzoate] | 2.15
15 | O=C1C=C(Nc2ccccc2C(=O)O)c2ccccc2C1=O [SMR000123743] | 16.9
16 | CC(=O)N(C1=C(Cl)C(=O)c2ccccc2C1=O)c1ccc(C(=O)O)cc1 [MLS001196720] | 8.68
17 | Cc1nc([N+](=O)[O-])c(Br)n1Cc1ccc(Cl)c(Cl)c1 [MLS000730654] | > 80
18 | O=C1C(=O)c2c(C(=O)c3ccccc3)coc2-c2ccccc21 [3-(phenylcarbonyl)benzo[g][1]benzofuran-4,5-dione] | > 80
19 | Cc1ccc(C)c(-n2nnnc2Sc2nnnn2-c2ccccc2)c1 [1-(2,5-dimethylphenyl)-5-(1-phenyltetrazol-5-yl)sulfanyltetrazole] | > 80
20 | COc1ccc(NC(=O)CSc2ccc(-c3ccco3)nn2)c(OC)c1 [N-(2,4-dimethoxyphenyl)-2-[[6-(2-furanyl)-3-pyridazinyl]thio]acetamide] | 5.55
21 | O=C(O)c1ccc2ncsc2c1 [SMR000372672] | > 80
22 | Cc1cc(C(F)F)n2ncc(C(=O)NCCc3ccc(Cl)cc3)c2n1 [N-[2-(4-chlorophenyl)ethyl]-7-(difluoromethyl)-5-methylpyrazolo[1,5-a]pyrimidine-3-carboxamide] | 9.04
23 | O=C1C=CC(CN=Nc2ccc([N+](=O)[O-])cn2)C(O)=C1 (configuration not stated) [SMR001527138] | > 80
24 | O=C1C(Nc2ccccc2)=CC(=NS(=O)(=O)c2cccs2)c2ccccc21 [MLS000374486] | 6.56
25 | COc1cc2c(cc1OC)-c1c(OC)c(OC)c(OC)c3ccnc(c13)C2=O [MLS000574936] | 10.1
26 | COC(=O)c1ccccc1NC1=CC(=NS(=O)(=O)c2ccc(C(=O)O)cc2)c2ccccc2C1=O | 5.77

Row | Structure (SMILES) | IC50 [µM]
27 | CC(=O)NC1C(=O)N(CCN2CCOCC2)c2ccc(Cl)cc21 (configuration not stated) [MLS001215975] | > 80
28 | CCOC(=O)C1=C(Cc2ccc(OC)cc2)C(=O)c2ccccc2C1=O [SMR000136995] | 12.8
29 | COc1cc(/C=C2\SC(c3ccc(C)cc3)=NC2=O)ccc1O [MLS000579809] | > 80
30 | O=C(C=Cc1ccc(Br)cc1)NC(=S)Nc1ccc(S(=O)(=O)Nc2nccs2)cc1 [(E)-3-(4-bromophenyl)-N-[[4-(1,3-thiazol-2-ylsulfamoyl)phenyl]carbamothioyl]prop-2-enamide] | > 80
31 | O=C1C=C(N2CCOCC2)c2ccccc2C1=O [SMR000516584] | 1.27
32 | COc1ccc2[nH]c3c4c(ccc3c2c1)C(=O)C=CC4=O [8-methoxy-11H-benzo[a]carbazole-1,4-dione] | > 80
33 | O=C(O)[C@@H](c1ccccc1)N1Cc2ccccc2C1=O | > 80
34 | O=C1C(Nc2ccc(O)cc2)=CC(=NS(=O)(=O)c2cccs2)c2ccccc21 [MLS000775432] | 6.28
35 | C=CCN1C=C2C(=O)C(C)(OC(=O)CCC(=O)OC)C(=O)C(Br)=C2C=C1c1ccc(OC)cc1 (configuration not stated) | > 80
36 | COc1ccc2cc(CCNC(=O)c3ccc(S(=O)(=O)N4CCCC4)cc3)c(O)nc2c1 [SMR000805966] | 7.34
37 | O=C1c2ccccc2-c2onc3ccc(Oc4ccccc4)c1c23 [MLS000525578] | > 80
38 | CC(=O)NC1C(=O)N(CCN2CCOCC2)c2ccc(Br)cc21 (configuration not stated) [MLS001215987] | > 80
39 | O=C(O)c1ccccc1-c1c2cc(I)c(=O)c(I)c-2oc2c(I)c(O)c(I)cc12 [sodium;2-(2,4,5,7-tetraiodo-3-oxido-6-oxo-9-xanthenyl)benzoate] | 47.2
40 | Cc1ccc(/N=C/C2=CC(Cc3ccccc3Cl)C=C([N+](=O)[O-])C2=O)c(O)c1 (configuration not stated) | > 80
41 | Cc1ccccc1NC1=CC(=NS(=O)(=O)c2ccc(C(=O)O)cc2)c2ccccc2C1=O [4-[(E)-[3-(2-methylanilino)-4-oxonaphthalen-1-ylidene]amino]sulfonylbenzoic acid] | 2.84
42 | Cc1cc2cc(CCNC(=O)c3ccc(S(=O)(=O)N4CCCC4)cc3)c(O)nc2cc1C [N-[2-(6,7-dimethyl-2-oxo-1H-quinolin-3-yl)ethyl]-4-pyrrolidin-1-ylsulfonylbenzamide] | 15
43 | Cc1ccc(S(=O)(=O)N=C2C=C(Nc3cccc(C(=O)O)c3)C(=O)c3ccccc32)c(C)c1 [3-[[(4E)-4-(2,4-dimethylphenyl)sulfonylimino-1-oxo-2-naphthalenyl]amino]benzoic acid] | 11
44 | Cc1ccc(-n2c3nc(=O)[nH]c(=O)c-3cc3cc([N+](=O)[O-])ccc32)cc1 [10-(4-methylphenyl)-7-nitropyrimido[4,5-b]quinoline-2,4-dione] | 19.4
45 | O=C1C(N2CCOCC2)=C(n2nnc3ccccc32)C(=O)c2ccccc21 [2-(1-benzotriazolyl)-3-(4-morpholinyl)naphthalene-1,4-dione] | 7.58
46 | COc1ncnc2c1oc1nc(C(C)C)c3c(c12)CC(C)(C)OC3 [MLS000084533] | 12.5
47 | Cc1ccc(C)c(S(=O)(=O)Nc2cc(SCC(=O)O)c(O)c3ccccc23)c1 [2-[4-[(2,5-dimethylphenyl)sulfonylamino]-1-hydroxynaphthalen-2-yl]sulfanylacetic acid] | 16.4
48 | COC(=O)c1cc(C)nc2c1C(=O)C(=O)C=C2N1CCOCC1 [MLS001208989] | 16.6
49 | O=c1c2ccccc2nc(/C=C/c2cccnc2)n1Cc1ccccc1 [MLS000709026] | > 80
50 | CCOC(=O)c1c(-n2c(C)cc(C=C3C(=O)NC(=S)NC3=O)c2C)sc2c1CCCC2 [ethyl 2-{3-[(4,6-dioxo-2-thioxotetrahydro-5(2H)-pyrimidinylidene)methyl]-2,5-dimethyl-1H-pyrrol-1-yl}-4,5,6,7-tetrahydro-1-benzothiophene-3-carboxylate] | > 80
51 | Cc1ccc(SC2=C(N(C)C)C(=O)c3ccccc3C2=O)cc1 [2-(dimethylamino)-3-[(4-methylphenyl)thio]naphthalene-1,4-dione] | 19.7
52 | CN(C)Cc1cc(O)c(CN(C)C)cc1O [2,5-bis[(dimethylamino)methyl]benzene-1,4-diol] | > 80

Same assay, conditions: inactive by the depositor's call

Row | Structure (SMILES) | IC50 [µM]
53 | COC(=O)c1ccc(CCc2cc(O)c(Br)cc2O)cc1 [SMR001565911] | 23.2
54 | Cc1cc(C)c(S(=O)(=O)N=C2C=C(Nc3ccc(C(=O)O)cc3)C(=O)c3ccccc32)c(C)c1 [MLS000948031] | 27.3
55 | CCCCNC(=O)c1sc(=S)n2c1[nH]c(=O)c1ccc(C(=O)NCCc3ccc(OC)c(OC)c3)cc12 [3-N-butyl-8-N-[2-(3,4-dimethoxyphenyl)ethyl]-5-oxo-1-sulfanylidene-4H-[1,3]thiazolo[3,4-a]quinazoline-3,8-dicarboxamide] | 21.2
56 | N#Cc1c(SCC(=O)Nc2nc3ccc(Br)cc3s2)sc2c(O)cc(=O)[nH]c12 [N-(6-bromo-1,3-benzothiazol-2-yl)-2-[(3-cyano-5-hydroxy-7-oxo-4H-thieno[3,2-b]pyridin-2-yl)thio]acetamide] | 25.9
57 | Nc1ccc(S(=O)(=O)c2cc(O)c3ccccc3c2O)cc1 [SMR001570953] | 59.9
58 | O=C1C(Cl)=C(NC(=O)c2ccccc2)C(=O)C(Cl)=C1NC(=O)c1ccccc1 [N-[4-benzamido-2,5-bis(chloranyl)-3,6-bis(oxidanylidene)cyclohexa-1,4-dien-1-yl]benzamide] | 39.2
59 | CCOC(=O)C1=C(Cc2ccc(F)cc2)C(=O)c2ccccc2C1=O [ethyl 3-(4-fluorobenzyl)-1,4-dioxo-1,4-dihydro-2-naphthalenecarboxylate] | 25.4
60 | COc1ccc(NC(=O)CSc2ccc(-c3cccnc3)nn2)c(OC)c1 [N-(2,4-dimethoxyphenyl)-2-[[6-(3-pyridinyl)-3-pyridazinyl]thio]acetamide] | 21.5
61 | COc1ccc(C(=O)c2coc3c2C(=O)C(=O)c2ccccc2-3)cc1 [3-(4-Methoxy-benzoyl)-naphtho[1,2-b]furan-4,5-dione] | 27.2
62 | Cc1cc(C)n2nc(SCc3nnc(SCc4ccccc4Cl)s3)nc2n1 | 23.2
